Experimental data taken from US11267826B2, “Penicillin-binding protein inhibitors” (priority 2017, dated 2022).

Tested on: S. aureus ATCC 29213
Assay: Broth microdilution MIC assay, S. aureus
Type: cell-based
Conditions: Staphylococcus aureus, ATCC29213; broth microdilution, 16-20 hours at 37° C.; read-out: S. aureus 29213 MIC
Summary of the method: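 CLSI broth microdilution in cation-supplemented Mueller-Hinton broth; 2-fold serial compound dilutions inoculated at 5×10^5 CFU/mL from 3-5 h log-phase cultures. Plates incubated 16-20 hours at 37° C. MIC read visually as lowest concentration with no bacterial growth.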

Nc1nc(/C(=N/O)C(=O)N[C@H]2Cc3cccc(C(=O)O)c3OB2O)cs1 [Example 6, (R,Z)-3-(2-(2-aminothiazol-4-yl)-2-(hydroxyimino)acetamido)-2-hydroxy-3,4-dihydro-2H-benzo[e][1,2]oxaborinine-8-carboxylic Acid]
MIC: < 64 µg/mL
